Experimental data published in publication PMC8096243 (Nucleic Acids Research, 2021).
One block for each molecule: values may come before it.

Experiments:
Assay type in all cases: binding
EcCdnD [1] = target: T1, EcCdnD (Enterobacter hormaechei, UniProt P0DSP4); test: ITC, single site
T1 sequence (P0DSP4 1-381): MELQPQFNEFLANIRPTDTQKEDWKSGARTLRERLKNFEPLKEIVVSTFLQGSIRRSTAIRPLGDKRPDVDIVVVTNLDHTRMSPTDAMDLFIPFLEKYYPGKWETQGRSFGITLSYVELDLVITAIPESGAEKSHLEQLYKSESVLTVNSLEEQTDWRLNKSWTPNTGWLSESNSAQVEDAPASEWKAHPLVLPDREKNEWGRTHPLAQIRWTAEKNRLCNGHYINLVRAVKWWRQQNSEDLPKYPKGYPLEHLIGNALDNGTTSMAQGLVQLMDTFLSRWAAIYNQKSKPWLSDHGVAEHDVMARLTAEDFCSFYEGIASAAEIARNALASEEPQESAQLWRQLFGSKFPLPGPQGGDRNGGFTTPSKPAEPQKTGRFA

EcCdnD [2] = target: T1, EcCdnD; test: crystal structure
EcCdnD [3] = target: T1, EcCdnD; test: crystal structure; remark: listed apart in the source

Kd (EcCdnD [1]): 29.7 ± 2.2 µM
SMILES: Nc1nc2c(ncn2[C@@H]2O[C@H](COP(=O)(O)O[C@H]3[C@@H](O)[C@H](n4cnc5c(N)ncnc54)O[C@@H]3COP(=O)(O)OP(=O)(O)OP(=O)(O)O)[C@@H](O)[C@H]2O)c(=O)[nH]1 [5′-pppApG-3′]

SMILES: Nc1ncnc2c1ncn2[C@@H]1O[C@H](COP(=O)(O)OP(=O)(O)O)[C@@H](O)[C@H]1O [ADP]
crystal structure (1.87 Å), together with donor ATP (EcCdnD [2]): The diphosphate group makes seven hydrogen bonds with Arg109, Arg197 and Arg307

SMILES: Nc1ncnc2c1ncn2[C@H]1CC[C@@H](CO[P@@](=O)(O)O[P@](=O)(O)OP(=O)(O)O)O1 [ddATP]
crystal structure (2.09 Å) (EcCdnD [3]): the ddATP occupied the binding site for the donor substrate
